Measurements as given in patent EP2114875B1, “SUBSTITUTED ARYLCYLOPENTENES AS THERAPEUTIC AGENTS” (ALLERGAN, INC., priority 2007, dated 2008).

Assays:
hEP2 [1] = target: T1, hEP2 (Homo sapiens, UniProt P43116); test: hEP2 flipr assay; format: cell-based
Text: (§1) United States Patent Application Serial No. 11/553,143, filed on October 26, 2006, describes the methods used to obtain the in vitro data in the table below.

hEP2 [2] = target: T1, hEP2; test: hEP2 cAMP assay; format: cell-based
Text: as §1

hEP2 [3] = target: T1, hEP2; test: hEP2 binding; details: read-out: hEP2 Kl
Text: as §1

hEP4 [4] = target: T2, hEP4 (Homo sapiens, UniProt P35408); test: hEP4 flipr assay; format: cell-based
Text: as §1

hEP4 [5] = target: T2, hEP4; test: hEP4 binding
Text: as §1

T1 sequence (P43116 whole entry): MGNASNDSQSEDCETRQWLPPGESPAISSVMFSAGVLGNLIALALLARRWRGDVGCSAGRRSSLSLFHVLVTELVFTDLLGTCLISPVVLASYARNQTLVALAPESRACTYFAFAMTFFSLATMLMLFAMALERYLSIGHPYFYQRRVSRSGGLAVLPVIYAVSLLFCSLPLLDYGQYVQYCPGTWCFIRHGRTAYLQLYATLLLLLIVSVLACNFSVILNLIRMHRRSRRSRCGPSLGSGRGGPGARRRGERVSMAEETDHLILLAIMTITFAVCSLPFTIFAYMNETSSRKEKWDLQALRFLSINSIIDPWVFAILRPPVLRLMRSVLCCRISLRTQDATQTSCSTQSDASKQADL
T2 sequence (P35408 whole entry): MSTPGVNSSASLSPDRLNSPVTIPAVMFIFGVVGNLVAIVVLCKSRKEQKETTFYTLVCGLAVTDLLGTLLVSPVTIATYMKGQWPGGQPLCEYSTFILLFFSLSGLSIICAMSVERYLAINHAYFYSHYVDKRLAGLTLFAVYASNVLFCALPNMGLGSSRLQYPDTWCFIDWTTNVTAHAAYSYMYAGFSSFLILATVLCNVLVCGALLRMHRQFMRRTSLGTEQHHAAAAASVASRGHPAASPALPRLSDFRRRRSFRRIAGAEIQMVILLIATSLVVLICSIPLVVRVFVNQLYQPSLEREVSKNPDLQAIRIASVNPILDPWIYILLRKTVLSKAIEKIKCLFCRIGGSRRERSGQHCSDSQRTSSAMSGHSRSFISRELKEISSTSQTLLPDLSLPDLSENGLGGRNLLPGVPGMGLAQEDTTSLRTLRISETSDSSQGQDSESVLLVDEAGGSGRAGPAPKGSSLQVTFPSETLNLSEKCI

`O=C(O)c1ccc(CCCC2=CC[C@@H](O)[C@@H]2COc2cc(Cl)cc(Cl)c2)s1` [Example 1, 5-{3[(4R,5S)-5-(3,5-Dichloro-phenoxymethyl)-4-hydroxy-cyclopent·1-enyl]-propyl}-thiophene-2-carboxylic acid] gave an EC50 (hEP2 [1]) of 0.424 µM, an EC50 (hEP2 [2]) of 0.0048 µM and a Ki (hEP2 [3]) of 0.081 µM. For the same molecule, the EC50 (hEP4 [4]) was greater than 10 µM and the Ki (hEP4 [5]) was 1.58 µM.
